{
  "source": "patent US20130338061A1",
  "about": "“Salts and Polymorphs of Sulfamide NS3 Inhibitors” (priority 2010, published 2013)",
  "key": {"[1]": {"biological_target": "HCV NS3-4A serine protease (full-length NS3-4A protein, genotype 1a, strain HCV-1) (Hepatitis C virus genotype 1a, UniProt P26664)", "sequence (P26664 1658-1711)": "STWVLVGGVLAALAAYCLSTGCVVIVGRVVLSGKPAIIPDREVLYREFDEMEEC", "sequence (P26664 1027-1657)": "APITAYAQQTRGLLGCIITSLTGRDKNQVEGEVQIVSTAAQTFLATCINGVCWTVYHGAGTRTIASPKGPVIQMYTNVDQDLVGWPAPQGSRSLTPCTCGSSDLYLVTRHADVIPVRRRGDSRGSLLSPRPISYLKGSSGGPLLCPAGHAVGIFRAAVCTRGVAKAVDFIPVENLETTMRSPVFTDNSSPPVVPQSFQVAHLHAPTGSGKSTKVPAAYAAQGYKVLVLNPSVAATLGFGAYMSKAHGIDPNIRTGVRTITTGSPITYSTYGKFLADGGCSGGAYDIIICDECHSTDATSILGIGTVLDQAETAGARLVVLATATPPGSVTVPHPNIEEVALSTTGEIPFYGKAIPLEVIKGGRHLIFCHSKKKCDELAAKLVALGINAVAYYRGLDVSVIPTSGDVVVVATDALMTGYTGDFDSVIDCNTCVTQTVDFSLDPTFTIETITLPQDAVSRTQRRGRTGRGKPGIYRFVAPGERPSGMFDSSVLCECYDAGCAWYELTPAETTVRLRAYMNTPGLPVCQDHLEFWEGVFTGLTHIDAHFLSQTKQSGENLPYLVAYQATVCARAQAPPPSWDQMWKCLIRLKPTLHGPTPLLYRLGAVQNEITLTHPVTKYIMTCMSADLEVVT", "test": "HCV NS3-4A protease assay", "type": "biochemical", "conditions": "fluorogenic peptide substrate", "procedure": "The inhibitory activity of Compound X against HCV NS3-4A serine protease is determined in a homogenous assay using the full-length NS3-4A protein (genotype 1a, strain HCV-1) and a commercially available internally-quenched fluorogenic peptide substrate as described by Taliani, M., et al. 1996 Anal. Biochem. 240:60-67, which is incorporated by reference in its entirety."}, "[2]": {"system": "subgenomic genotype 1b HCV replicon cell line (Huh-Luc/neo-ET)", "test": "Luciferase-based HCV replicon assay", "type": "cell-based", "conditions": "Hepatitis C virus; Huh-Luc/neo-ET replicon cells, 48-h treatment, 10% FBS; read-out: IC50 in replicon assay (luciferase activity reduced by 50%)", "procedure": "The antiviral activity and cytotoxicity of Compound X is determined using a subgenomic genotype 1b HCV replicon cell line (Huh-Luc/neo-ET) containing a luciferase reporter gene, the expression of which is under the control of HCV RNA replication and translation. Briefly, 5,000 replicon cells are seeded in each well of 96-well tissue culture plates and are allowed to attach in complete culture media without G418 overnight. On the next day, the culture media are replaced with media containing serially diluted Compound X in the presence of 10% FBS and 0.5% DMSO. After a 48-h treatment with the compound, the remaining luciferase activities in the cells are determined using BriteLite reagent (Perkin Elmer, Wellesley, Mass.) with a LMaxII plate reader (Molecular Probe, Invitrogen). Each data point represents the average of four replicates in cell culture. IC50 is the concentration of the compound at which the luciferase activity in the replicon cells is reduced by 50%. The cytotoxicity of the compound is evaluated using an MTS-based cell viability assay."}},
  "data": [
    {"smiles": "CC[C@@H]1C[C@]1(NC(=O)[C@@H]1C[C@@]2(CN1C(=O)[C@@H](NC(=O)[C@@H](NC(=O)[C@@H]1CCCCN1C(C)C)C1CCCCC1)C(C)(C)C)C(C)(C)C21CCC1)C(=O)NS(=O)(=O)N1CCCC1", "note": "[Compound X, (5R,8S)-7-[(2S)-2-{[(2S)-2-cyclohexyl-2-({[(2S)-1-isopropylpiperidin-2-yl]carbonyl}amino)acetyl]amino}-3,3-dimethylbutanoyl]-N-{(1R,2R)-2-ethyl-1-[(pyrrolidin-1-ylsulfonyl)carbamoyl]cyclopropyl}-10,10-dimethyl-7-azadispiro[3.0.4.1]decane-8-carboxamide]", "values": [
      {"measurement": "IC50", "setting": "[1]", "value": 4.5, "unit": "nM"},
      {"measurement": "IC50", "setting": "[2]", "value": "< 100", "unit": "nM"}
    ]}
  ]
}
